# Test results published in patent US20120225885A1, “IMIDAZOLE DERIVATIVES AND METHODS OF USE THEREOF” (priority 2009, published 2012).
# Biological target: H3 receptor (UniProt Q9Y5N1)
# Test: H3 Receptor Binding Assay
# Details: displacement of 3 nM [3H]R-α-methyl histamine or [3H]Nα-methyl histamine; membranes from guinea pig brain, alternatively recombinant human receptor in HEK-293 cells; 30° C., 30 minutes; read-out: H3 Ave Ki
# Experimental: The source of the H3 receptors in this experiment was guinea pig brain. Alternatively, the source of H3 receptors was recombinant human receptor, expressed in HEK-293 (human embryonic kidney) cells.
# The animals weighed 400-600 g. The brain tissue was homogenized with a solution of 50 mM Tris, pH 7.5. The final concentration of tissue in the homogenization buffer was 10% w/v. The homogenates were centrifuged at 1,000×g for 10 minutes. in order to remove clumps of tissue and debris. The resulting supernatants were then centrifuged at 50,000×g for 20 minutes in order to sediment the membranes, which were next washed three times in homogenization buffer (50,000×g for 20 minutes. each). The membranes were frozen and stored at −70° C. until needed.
# Compounds of the invention to be tested were dissolved in DMSO and then diluted into the binding buffer (50 mM Tris, pH 7.5) such that the final concentration was 2 μg/ml with 0.1% DMSO. Membranes were then added (400 μg of protein, 5 μg in the case of recombinant human receptor) to the reaction tubes. The reaction was started by the addition of 3 nM [^3H]R-α-methyl histamine (8.8 Ci/mmol) or 3 nM [^3H]N^α-methyl histamine (80 Ci/mmol) and continued under incubation at 30° C. for 30 minutes. Bound ligand was separated from unbound ligand by filtration, and the amount of radioactive ligand bound to the membranes was quantitated by liquid scintillation spectrometry. All incubations were performed in duplicate and the standard error was always less than 10%. Compounds that inhibited more than 70% of the specific binding of radioactive ligand to the receptor were serially diluted to determine a Ki (nM).
row,Compound,Ki [nM]
1,C[C@@H]1CCCN1CCc1cn2cc(Br)ccc2n1 [Compound 1],327
2,C[C@@H]1CCCN1CCc1cn2cc(-n3ncccc3=O)ccc2n1 [Compound 3],76.8
3,C[C@@H]1CCCN1CCc1cn2cc(-c3ccc(N(C)C)cc3)ccc2n1 [Compound 4],106
4,COc1ccc(-c2ccc3nc(CCN4CCC[C@H]4C)cn3c2)cc1 [Compound 5],91.8
5,C[C@@H]1CCCN1CCc1cn2cc(-c3ccc(O)cc3)ccc2n1 [Compound 7],64.5
6,CC(=O)Nc1ccc(-c2ccc3nc(CCN4CCC[C@H]4C)cn3c2)cc1 [Compound 8],67.5
7,COc1ccccc1-c1ccc2nc(CCN3CCC[C@H]3C)cn2c1 [Compound 10],163
8,C[C@@H]1CCCN1CCc1cn2cc(-c3ccccc3F)ccc2n1 [Compound 11],74
9,C[C@@H]1CCCN1CCc1cn2ccc(Br)cc2n1 [Compound 12],101
10,CCOc1cccc(-c2ccn3cc(CCN4CCC[C@H]4C)nc3c2)c1 [Compound 14],70
11,C[C@@H]1CCCN1CCc1cn2cc(-c3cccc4ncccc34)ccc2n1 [Compound 20],104
12,C[C@@H]1CCCN1CCc1cn2cc(-c3ccc4[nH]ccc4c3)ccc2n1 [Compound 21],459
13,C[C@@H]1CCCN1CCc1cn2cc(-c3ccc(=O)n(C)c3)ccc2n1 [Compound 22],69
14,C[C@@H]1CCCN1CCc1cn2cc(-c3cncnc3)ccc2n1 [Compound 24],366
15,C[C@@H]1CCCN1CCc1cn2cc(-c3cnc(N)cn3)ccc2n1 [Compound 25],246

# Compounds with a lower Ki, results first:
row,Ki [nM],Compound
1,58.5,C[C@@H]1CCCN1CCc1cn2cc(-c3ccc(F)cc3)ccc2n1 [Compound 6]
2,38.6,C[C@@H]1CCCN1CCc1cn2cc(-c3cncc(C#N)c3)ccc2n1 [Compound 18]
3,36.5,C[C@@H]1CCCN1CCc1cn2ccc(-c3ccc(F)nc3)cc2n1 [Compound 19]
4,34,C[C@@H]1CCCN1CCc1cn2ccc(-c3ccc(C#N)cc3)cc2n1 [Compound 13]
5,27,C[C@@H]1CCCN1CCc1cn2cc(-c3ccc(C#N)cc3)ccc2n1 [Compound 2]
6,25,C[C@@H]1CCCN1CCc1cn2ccc(-c3ccccc3F)cc2n1 [Compound 15]
7,22,C[C@@H]1CCCN1CCc1cn2cc(-c3cnc(N)c(C#N)c3)ccc2n1 [Compound 23]
8,13,C[C@@H]1CCCN1CCc1cn2cc(-c3cccc(C#N)c3)ccc2n1 [Compound 9]
9,11.2,C[C@@H]1CCCN1CCc1cn2cc(-c3ccc4ncccc4c3)ccc2n1 [Compound 17]
10,7.1,Cc1nnc2ccc(-c3ccc4nc(CCN5CCC[C@H]5C)cn4c3)cn12 [Compound 26]
11,4,C[C@@H]1CCCN1CCc1cn2cc(-c3ccc(F)c(C#N)c3)ccc2n1 [Compound 16]
